In PMC9684134, “In vitro biochemical assessment of mixture effects of two endocrine disruptors on INS-1 cells” (Scientific Reports, 2022):
Where two headings read alike, the source gives them in different places.

Columns and labels:
[1] = system: INS-1 cells; assay: Oxidative stress: ROS by CellROX orange staining; type: cell-based, rat; conditions: Table 3 summary, low and high concentration, 48 h
Procedure: (§1) The spent medium in section “Treatment of INS-1 cells” was removed and 50 µL CellROX staining solution was added to each well according to the manufacturer’s instructions and incubated at 37 °C for 30 min. Images from nine sites per well were acquired using filter sets appropriate for DAPI (4′, 6-diamidino-2-phenylindole) and TRITC (tetramethylrhodamine-isothiocyanate) which were the fluorophors. Image acquisition was done on ImageXpress Micro XLS and analyzed using the Multi-Wavelength Scoring software (Molecular Devices). In another experiment 50 µL ThiolTracker Violet staining solution was put in each well and incubated at 37 °C for 20 min. Images from nine sites per well were acquired using filter sets appropriate for DAPI and CY5 (amine reactive fluorescent dye). Image acquisition and data analysis were as done for the CellROX orange reagent. Excitation/Emission wavelength was at 545/565 nm.

[2] = system: INS-1 cells; assay: Glucose uptake assay (glucose oxidase); type: cell-based, rat; conditions: Table 3 summary, low and high concentration, 48 h
Procedure: Glucose uptake was determined in INS-1 cells by monitoring the levels of glucose remaining in the culture medium after a selected treatment period. The cell density was 30 000 per well; one row was without cells to serve as maximum glucose content. Spent medium was removed and the cells were treated with 100 µL of the test compounds at concentrations indicated in section “Treatment of INS-1 cells”. The cells were incubated for a further 48 h and 5µL spent culture medium was thereafter transferred to a new plate of 96 wells and 200 µL glucose oxidase reagent added. Incubation was at 37 °C for 20 min and absorbance was read at 520 nm. Glucose uptake was obtained as the difference in glucose concentration between wells without cells and those with cells and respective treatments.

[3] = system: INS-1 cells
Procedure: (§2) TMRE is a cell permeable cationic dye that accumulates in the mitochondrial matrix according to mitochondrial membrane potential (ΔψM). Staining solution was prepared by adding 5 mL PBS, 50 µL TMRE working solution and 2 µL Hoechst 33342 solution to 5 mL of RPMI. The spent medium was removed and 50 µL staining solution was put in each well and incubated for 30 min at 37 °C. Image acquisition and data analysis were done as indicated.

[4] = Cell viability assay (MTT); type: cell-based; conditions: rat
Procedure: INS-1 cells were routinely grown at 5% CO2, 95% air at 37 °C in RPMI-1640 containing 11.1 mM glucose and supplemented with 10% foetal calf serum (FCS), 1 mM pyruvate, 10 mM 4-(2-hydroxyethyl)-1-piperazine ethane sulphonic acid (HEPES), 50 µM 2-mercaptoethanol, 100 U penicillin/mL and 100 µg streptomycin/mL. Sub-confluent cultures were trypsinized to dislodge the cells and sub-cultured at a ratio of 1:3 or 1:0.75 in other experiments. INS-1 cells were seeded into a 96-well plate at densities of 10 000, 15 000 or 30,000 cells/well. They were allowed to attach at 37 °C overnight.
The cells were incubated for 48 h with test compounds containing 20 µM or 30 µM 4-tOP and 8 µM or 12.5 µM TCS. Combination treatments (4-tOP + TCS) were 12.5 µM or 25 µM at 1:1 ratio.
Cell viability was assessed by a principle of enzymatic reduction of 3-[4, 5-dimethylthiazole-2-yl]-2, 5-diphenyltetrazolium bromide (MTT) to formazan. The treated cells respectively were loaded with 20 µL 0.5 mg/mL MTT and incubated at 37 °C for 3 h. […] The absorbance of the purple-coloured formazan was measured at 540 nm on microplate reader. IC50, (the median inhibitory concentration) was calculated with GraphPad Prism software. Data were expressed as a percentage of control.
Results were expressed as means ± SD from at least three replicate measurements. The difference between means was analyzed with ANOVA, α value = 0.05. […]

[5] = system: INS-1 cells; type: cell-based, rat; conditions: for Annexin PI: mode of cell death (summary): Table 3 summary
Procedure: The treated cells were sub-cultured at 4:3. Annexin V-FITC staining assay was performed as recommended by the manufacturer. Melphalan (Mel) and Etoposide (Etop) served as the positive controls. Incubation lasted 48 h. The spent medium was removed and 50 µL PI staining solution was in each well and incubated for 15 min at 37 °C followed by image acquisition and data analysis as in previous experiments. Images from nine sites per well were acquired using filter sets appropriate for DAPI, FITC and Texas red dyes.

[6] = system: INS-1 cells; assay: Mitochondrial mass (MitoTracker Green staining); type: cell-based, rat; conditions: 48 h; for Mitochondrial mass (summary): Table 3 summary, all concentrations
Procedure: Staining solution consisted of 10 mL of PBS to which was added 1 µL MitoTracker Green (MTG) stock (1 mM in DMSO) and 2 µL Hoechst solution (10 mg/mL in DMSO). Spent medium was removed and 50 µL staining solution added to each well (96 wells) followed by incubation at 37 °C for 20 min.

[7] = system: INS-1 cells; assay: Glucose-galactose cytotoxicity assay (MTT); conditions: for IC50: Rattus norvegicus, INS1, 48 h
Procedure: Sub-culturing was in ratio 4:3. Cell density was 15,000 cells/well and treated with 200 µL of the test solution that was solubilized in glucose-free RPMI medium supplemented with 5 mM glucose or 5 mM galactose. The cells were incubated further for 48 h. The spent medium was replaced with 100 µL glucose in RPMI medium. 2,4-dinitrophenol served as positive control. The cells were finally loaded with MTT as in section “Cell viability assay” but incubation took 120 min.

[8] = system: caspase 3 activation in INS-1 cells; assay: Caspase-3 activation assay; type: cell-based, rat; conditions: 48 h
Procedure: Additional 100 µL test compounds were solubilized in the medium and incubated for 48 h. The spent medium was replaced with 100 µL of fix solution (4% formaldehyde in phosphate-buffered saline (PBS) and was fixed overnight; the cells were permeabilized with ice cold methanol, then washed with PBS and blocked using 1% BSA followed by incubation with the primary antibody at 1:200 dilution in blocking buffer for 2 h. The excess antibody was removed by washing with blocking buffer. Incubation was thereafter carried out with secondary antibody (FITC labelled) for 30 min and later washed with blocking buffer to remove excess antibody. Images from nine sites per well were acquired using filter sets appropriate for DAPI and FITC. Image analysis was done as in previous experiments.

[9] = system: INS-1 cells; assay: Glucose stimulated calcium influx (Fluo-4); type: cell-based, rat; conditions: 20 mM glucose stimulation; for Intracellular calcium levels (summary): Table 3 summary, 24 h incubation; for Glucose stimulated intracellular calcium flux compared with the Blank: positive controls
Procedure: Fluo-4 dye is specific for intracellular Ca^2+ concentration. On binding calcium, the green fluorescence intensity increases by more than 100 folds (excitation/emission 494/[…]). Incubation was for 24 h. Staining solution was prepared by adding 20 µL Flou-4 stock solution (1 mM in DMSO) and 2 µL Hoechst solution to 10 mL of PBS. After staining, incubation was done for 30 min at 37 °C. The stain solution was removed and replaced with 50 µL PBS. Incubation was further carried out at room temperature for 20 min. Difference in fluorescence intensity between wells containing glucose and those without glucose represents calcium influx in response to glucose. Just prior to image acquisition, 20 mM glucose was added to four of the eight replicate wells and incubated at room temperature for 10 min. Image acquisition and data analyses were done as usual. Filter sets appropriate for DAPI and FITC were also used. Diazoxide and Glibenclamide were used as the positive controls.

[10] = system: INS-1 cells; assay: Oxidative stress: reduced glutathione by ThiolTracker Violet staining; type: cell-based, rat; conditions: 48 h; for Glutathione levels (oxidative stress summary): Table 3 summary, low and high concentration
Procedure: as §1

[11] = system: INS-1 cells; assay: Mitochondrial membrane potential (TMRE staining); conditions: 48 h
Procedure: as §2

[12] = system: HepG2 human liver cells; parameters: method as in PMID 27459410; conditions: cited from earlier work
[13] = parameters: method as in PMID 9894786; conditions: Ca2+-dependent binding to phosphatidylserine; cited from earlier work
[14] = high concentration (12.5 µM TCS, 30 µM 4-tOP, 25 µM Mix), 48 h
[15] = low concentration (8 µM TCS, 20 µM 4-tOP, 12.5 µM Mix), 48 h

In the case of `CC(C)(C)CC(C)(C)c1ccc(O)cc1` [4-tert-Octylphenol], the “ROS (oxidative stress summary)” value [1] is reported as “Dose dependent increase in ROS but variation high hampering statistical significance”, the “Glucose uptake (summary)” value [2] is reported as “Consumption pattern as with T. No significant change in glucose consumption” and the “Mitochondrial membrane potential MMP (summary)” value [3] is reported as “The increase in MMP was not substantial”. The IC50 at 48 h [4] was 32.5 µM, the “Induction of apoptosis compared with the Blank” value ([5]; 20 µM or 30 µM, 48 h) was “failed to significantly induce apoptosis” and the “Annexin PI: mode of cell death (summary)” value [5] was “Cell death by 4-tOP was by necrosis”. The “Proportion of live cells” value [5, 14] was 73.8%, the “Cell death by necrosis compared with the Blank” value ([5]; high concentration (30 µM 4-tOP), 48 h) was “significantly underwent necrosis” and the “Proportion of live cells” value [5, 15] was 81.4%. For the same compound, the “Mitochondrial mass (summary)” value [6] was “No substantial change in mitochondrial content at all concentrations relative to the untreated cells”, the IC50 ([7]; read-out: IC50 Galactose) was 34.5 µM and the IC50 ([7]; read-out: IC50 Glucose) was 33.4 µM. The “Glucose-galactose differential cytotoxicity (summary)” value ([7]; rat, 48 h) was “Higher IC50 in galactose than in glucose”, the “Caspase 3 activation compared with the Blank” value ([8]; test substances) was “Increase in caspase 3 activation not substantial” and the “Intracellular calcium levels (summary)” value [9] was “No significant changes in glucose stimulated intracellular calcium levels”. The “Glutathione levels (oxidative stress summary)” value [10] was “Decrease glutathione levels corroborated ROS production”.
With `CC1=NS(=O)(=O)c2cc(Cl)ccc2N1` [Diazoxide, reference compound] the “Glucose stimulated intracellular calcium flux compared with the Blank” value [9] was “significantly increased intracellular calcium flux”.
For `COc1cc([C@@H]2c3cc4c(cc3[C@@H](O[C@@H]3O[C@@H]5CO[C@@H](C)O[C@H]5[C@H](O)[C@H]3O)[C@H]3COC(=O)[C@H]23)OCO4)cc(OC)c1O` [Etoposide, reference compound], the “Proportion of cells died by apoptosis” value ([5]; positive control 40 µM, 48 h) was 17.4%, the “Proportion of live cells” value ([5]; positive control 40 µM, 48 h) was 42.5% and the “Caspase 3 activation compared with the Blank” value ([8]; positive control 40 µM) was “significant increases in caspase 3 activation”. The “GSH compared with the Blank” value ([10]; positive control 40 µM) was “significant reduction of GSH”.
Work on `O=[N+]([O-])c1ccc(O)c([N+](=O)[O-])c1` [2,4-Dinitrophenol, 2,4-dinitrophenol, reference compound] yielded an IC50 ([7]; read-out: IC50 Galactose) of 24.5 µM and an IC50 ([7]; read-out: IC50 Glucose) of 46 µM.
For `N[C@@H](Cc1ccc(N(CCCl)CCCl)cc1)C(=O)O` [Melphalan, reference compound], the “Mitochondrial membrane potential ΔΨM (MMP) compared to the Blank” value ([11]; positive control 40 µM) was “Significant loss of mitochondrial membrane potential”, the “Proportion of cells died by apoptosis” value ([5]; positive control 40 µM, 48 h) was 15.7% and the “Proportion of live cells” value ([5]; positive control 40 µM, 48 h) was 34.5%. For the same compound, the “Mitochondrial mass relative to the Blank” value ([6]; positive control 40 µM) was “significantly increased mitochondrial mass” and the “GSH compared with the Blank” value ([10]; positive control 40 µM) was “significant reduction of GSH”.
For `COc1ccc(Cl)cc1C(=O)NCCc1ccc(S(=O)(=O)NC(=O)NC2CCCCC2)cc1` [Glibenclamide, reference compound], the “Glucose stimulated intracellular calcium flux compared with the Blank” value [9] was “significantly increased intracellular calcium flux”.
In the case of `Oc1cc(Cl)ccc1Oc1ccc(Cl)cc1Cl` [Triclosan], the “Mitochondrial membrane potential MMP (summary)” value ([11]; Table 3 summary) is reported as “Significant decrease in MMP at the high concentration. only”, the “Mitochondrial membrane potential ΔΨM (MMP) compared to the Blank” value ([11]; high concentration (12.5 µM TCS, 25 µM Mix)) is reported as “Significant loss of mitochondrial membrane potential” and the “ROS (oxidative stress summary)” value [1] is reported as “Dose dependent increase in ROS but variation high hampering statistical significance”. For the same compound, the IC50 [12] was 24.5 µM, the “Glucose uptake (summary)” value [2] was “Decreased glucose consumption at high concentration, increase at low concentration but not substantial compared with Blank” and the IC50 at 48 h ([4]; INS-1 cells, MTT, 48 h, read-out: IC50 for cytotoxicity against INS-1 cells) was 12.7 µM. For the same compound, the “Annexin PI: mode of cell death (summary)” value [5] was “TCS induced cell death by apoptosis”, the “Proportion of cells died by apoptosis” value ([5]; high concentration (12.5 µM TCS, 25 µM Mix), 48 h) was 16.6% and the “Proportion of live cells” value [5, 14] was 43.7%. For the same compound, the “Proportion of live cells” value [5, 15] was 81.2%, the “Mitochondrial mass (summary)” value [6] was “No substantial change in mitochondrial content at all the concentrations relative to the untreated cells” and the IC50 ([7]; read-out: IC50 Galactose) was 8.23 µM. For the same compound, the IC50 ([7]; read-out: IC50 Glucose) was 11.7 µM, the “Glucose-galactose differential cytotoxicity (summary)” value ([7]; Table 3 summary) was “Increased cytotoxicity in galactose medium indicative of potential mitochondrial toxicity” and the “Caspase 3 activation compared with the Blank” value ([8]; test substances) was “Increase in caspase 3 activation not substantial”. For the same compound, the “Intracellular calcium levels (summary)” value [9] was “The reduction in glucose stimulated intracellular calcium flux was not substantial”, the “Glutathione levels (oxidative stress summary)” value [10] was “Decreased glutathione levels corroborated ROS production” and the “GSH compared with the Blank” value ([10]; high concentration (12.5 µM TCS)) was “significant reduction of GSH”.
In the case of “Annexin V: 35 kDa Ca2+-dependent phospholipid binding protein used to detect phosphatidylserine”, the Kd [13] is listed as 0.007 µM.
